From publication PMC5557014 (Biochemical pharmacology, 2017)
Where two headings read alike, the source gives them in different places.

Key:
Type in all cases: biochemical
[1] = target: T1, cellular DNA polymerase α (Homo sapiens, UniProt P09884); experiment: Cellular DNA polymerase α assay
T1 sequence (P09884 1-1462): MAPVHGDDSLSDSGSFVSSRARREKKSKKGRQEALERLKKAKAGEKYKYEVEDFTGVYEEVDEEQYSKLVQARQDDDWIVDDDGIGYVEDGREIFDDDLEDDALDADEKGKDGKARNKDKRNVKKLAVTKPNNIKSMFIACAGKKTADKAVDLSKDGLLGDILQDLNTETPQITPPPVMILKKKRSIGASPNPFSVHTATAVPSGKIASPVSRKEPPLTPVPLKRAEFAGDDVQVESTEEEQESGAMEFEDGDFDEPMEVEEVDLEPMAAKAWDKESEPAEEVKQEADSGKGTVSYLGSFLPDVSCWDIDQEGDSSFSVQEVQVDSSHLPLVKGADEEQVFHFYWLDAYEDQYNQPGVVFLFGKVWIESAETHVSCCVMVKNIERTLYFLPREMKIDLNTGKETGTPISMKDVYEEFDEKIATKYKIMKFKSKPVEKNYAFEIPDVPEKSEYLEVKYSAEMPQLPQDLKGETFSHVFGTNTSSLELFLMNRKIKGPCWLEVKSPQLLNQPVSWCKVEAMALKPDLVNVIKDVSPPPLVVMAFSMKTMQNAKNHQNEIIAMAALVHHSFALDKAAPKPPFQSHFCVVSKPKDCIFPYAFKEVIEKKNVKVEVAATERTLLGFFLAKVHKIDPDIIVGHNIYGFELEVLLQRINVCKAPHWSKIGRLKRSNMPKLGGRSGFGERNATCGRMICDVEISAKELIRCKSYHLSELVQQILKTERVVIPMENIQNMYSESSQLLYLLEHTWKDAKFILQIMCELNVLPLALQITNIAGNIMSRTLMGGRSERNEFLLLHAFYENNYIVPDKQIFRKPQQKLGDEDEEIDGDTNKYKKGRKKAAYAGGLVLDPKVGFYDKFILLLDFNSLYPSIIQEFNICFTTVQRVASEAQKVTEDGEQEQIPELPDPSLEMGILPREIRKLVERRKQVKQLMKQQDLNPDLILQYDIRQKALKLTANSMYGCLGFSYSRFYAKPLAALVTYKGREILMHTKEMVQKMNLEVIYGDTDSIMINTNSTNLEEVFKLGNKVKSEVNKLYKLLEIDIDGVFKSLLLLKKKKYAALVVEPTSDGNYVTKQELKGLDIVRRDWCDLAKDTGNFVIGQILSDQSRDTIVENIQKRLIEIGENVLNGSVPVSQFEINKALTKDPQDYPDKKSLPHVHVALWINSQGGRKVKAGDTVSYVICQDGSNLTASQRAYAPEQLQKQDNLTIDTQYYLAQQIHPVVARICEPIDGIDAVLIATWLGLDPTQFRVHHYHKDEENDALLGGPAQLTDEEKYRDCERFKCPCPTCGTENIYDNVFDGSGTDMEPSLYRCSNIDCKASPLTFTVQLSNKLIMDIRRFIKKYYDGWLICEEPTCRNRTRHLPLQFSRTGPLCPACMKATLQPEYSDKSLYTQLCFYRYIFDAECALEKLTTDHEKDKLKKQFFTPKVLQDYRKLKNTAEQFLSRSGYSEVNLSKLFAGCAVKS

HCMV DNA polymerase = HCMV DNA polymerase (Human cytomegalovirus, UniProt P08546); experiment: HCMV DNA polymerase enzyme assay; conditions: calf thymus DNA
HSV-1 DNA polymerase = HSV-1 DNA polymerase (Human herpesvirus 1, UniProt P04293); experiment: HSV-1 DNA polymerase enzyme assay; conditions: calf thymus DNA
[2] = target: cellular DNA polymerase β (Homo sapiens, UniProt P06746); experiment: Cellular DNA polymerase β assay
HIV-1 RT = HIV-1 RT (Human immunodeficiency virus type 1 group M subtype B, UniProt P04585); experiment: HIV-1 RT assay with homopolymeric template/primers

Chain of HSV-1 DNA polymerase (P04293 whole entry): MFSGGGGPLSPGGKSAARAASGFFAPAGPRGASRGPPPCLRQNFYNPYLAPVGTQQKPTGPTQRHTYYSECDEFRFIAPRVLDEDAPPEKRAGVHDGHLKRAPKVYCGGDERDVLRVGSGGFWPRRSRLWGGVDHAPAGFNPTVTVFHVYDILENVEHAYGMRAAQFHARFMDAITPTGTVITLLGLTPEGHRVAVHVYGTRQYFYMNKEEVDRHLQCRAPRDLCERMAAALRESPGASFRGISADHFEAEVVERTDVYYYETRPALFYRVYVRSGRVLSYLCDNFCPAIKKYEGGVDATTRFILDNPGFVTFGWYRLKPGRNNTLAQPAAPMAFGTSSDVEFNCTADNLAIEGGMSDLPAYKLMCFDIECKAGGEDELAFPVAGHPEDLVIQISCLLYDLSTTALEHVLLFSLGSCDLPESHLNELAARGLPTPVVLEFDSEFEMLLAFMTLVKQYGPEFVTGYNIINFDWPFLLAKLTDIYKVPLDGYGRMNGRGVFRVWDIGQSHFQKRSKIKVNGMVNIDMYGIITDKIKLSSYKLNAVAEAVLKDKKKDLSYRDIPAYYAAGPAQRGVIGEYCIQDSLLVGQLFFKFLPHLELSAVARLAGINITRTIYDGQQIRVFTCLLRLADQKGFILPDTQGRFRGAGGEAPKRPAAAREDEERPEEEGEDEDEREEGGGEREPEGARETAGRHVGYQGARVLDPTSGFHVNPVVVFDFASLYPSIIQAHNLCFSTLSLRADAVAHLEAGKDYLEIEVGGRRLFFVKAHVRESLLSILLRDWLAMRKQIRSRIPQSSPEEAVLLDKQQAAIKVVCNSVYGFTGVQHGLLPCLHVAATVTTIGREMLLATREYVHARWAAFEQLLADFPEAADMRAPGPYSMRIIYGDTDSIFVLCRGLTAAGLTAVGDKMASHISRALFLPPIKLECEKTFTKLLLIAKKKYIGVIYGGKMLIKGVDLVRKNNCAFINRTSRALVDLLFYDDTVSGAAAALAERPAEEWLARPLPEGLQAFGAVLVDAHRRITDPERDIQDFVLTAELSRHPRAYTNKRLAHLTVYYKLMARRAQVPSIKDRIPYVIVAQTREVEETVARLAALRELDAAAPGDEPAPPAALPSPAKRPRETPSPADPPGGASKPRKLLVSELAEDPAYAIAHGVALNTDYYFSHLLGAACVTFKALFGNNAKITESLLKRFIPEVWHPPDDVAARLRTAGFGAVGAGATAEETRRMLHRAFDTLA
Chain of HCMV DNA polymerase (P08546 whole entry): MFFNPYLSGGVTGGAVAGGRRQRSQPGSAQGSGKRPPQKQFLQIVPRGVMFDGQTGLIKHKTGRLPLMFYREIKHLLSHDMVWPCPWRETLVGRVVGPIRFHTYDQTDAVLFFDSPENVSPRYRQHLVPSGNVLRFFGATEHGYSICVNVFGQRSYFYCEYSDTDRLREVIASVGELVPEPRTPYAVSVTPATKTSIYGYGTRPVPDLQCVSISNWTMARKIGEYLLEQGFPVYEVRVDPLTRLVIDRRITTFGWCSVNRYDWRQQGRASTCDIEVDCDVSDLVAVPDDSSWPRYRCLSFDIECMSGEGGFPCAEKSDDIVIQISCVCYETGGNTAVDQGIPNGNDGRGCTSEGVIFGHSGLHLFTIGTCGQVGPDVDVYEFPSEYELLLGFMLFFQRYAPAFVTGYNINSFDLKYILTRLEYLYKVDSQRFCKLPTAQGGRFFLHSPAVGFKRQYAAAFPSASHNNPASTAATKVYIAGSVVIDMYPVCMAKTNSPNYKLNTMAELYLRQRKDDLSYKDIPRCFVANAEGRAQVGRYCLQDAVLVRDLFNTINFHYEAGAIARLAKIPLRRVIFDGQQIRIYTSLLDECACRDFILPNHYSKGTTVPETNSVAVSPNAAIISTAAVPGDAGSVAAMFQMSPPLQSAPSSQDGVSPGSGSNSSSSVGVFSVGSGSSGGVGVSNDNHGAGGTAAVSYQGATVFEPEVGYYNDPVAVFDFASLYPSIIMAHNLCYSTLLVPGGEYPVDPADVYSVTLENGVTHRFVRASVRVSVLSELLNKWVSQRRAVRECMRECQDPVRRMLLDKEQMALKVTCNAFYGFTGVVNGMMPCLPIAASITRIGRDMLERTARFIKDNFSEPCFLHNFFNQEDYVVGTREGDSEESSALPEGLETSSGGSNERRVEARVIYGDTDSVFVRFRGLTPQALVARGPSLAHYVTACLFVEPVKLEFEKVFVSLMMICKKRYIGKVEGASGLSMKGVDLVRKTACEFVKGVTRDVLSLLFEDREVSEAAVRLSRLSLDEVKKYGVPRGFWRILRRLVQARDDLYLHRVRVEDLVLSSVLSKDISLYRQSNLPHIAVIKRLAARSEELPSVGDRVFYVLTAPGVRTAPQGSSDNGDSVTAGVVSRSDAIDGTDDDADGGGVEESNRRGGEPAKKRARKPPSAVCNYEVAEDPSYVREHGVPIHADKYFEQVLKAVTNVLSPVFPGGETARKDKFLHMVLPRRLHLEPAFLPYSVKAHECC

Row | Compound | IC50 [1] | IC50 (HCMV DNA polymerase; IC50 HCMV DNA pol, [^3H]dGTP) | IC50 (HCMV DNA polymerase; IC50 HCMV DNA pol, [^3H]dTTP) | IC50 (HSV-1 DNA polymerase; IC50 HSV-1 DNA pol, [^3H]dGTP) | IC50 (HSV-1 DNA polymerase; IC50 HSV-1 DNA pol, [^3H]dTTP) | IC50 [2] | IC50 ([1]; read-out: IC50 α DNA pol, calf thymus DNA, [^3H]dGTP) | IC50 (HIV-1 RT; read-out: IC50 HIV-1 RT, poly rA.dT, [^3H]dTTP) | IC50 (HIV-1 RT; read-out: IC50 HIV-1 RT, poly rC.dG, [^3H]dGTP) | IC50 (HCMV DNA polymerase; read-out: IC50 HCMV DNA pol, [^3H]dGTP) | IC50 (HCMV DNA polymerase; read-out: IC50 HCMV DNA pol, [^3H]dTTP) | IC50 (HSV-1 DNA polymerase; read-out: IC50 HSV-1 DNA pol, [^3H]dGTP) | IC50 (HSV-1 DNA polymerase; read-out: IC50 HSV-1 DNA pol, [^3H]dTTP) | IC50 ([2]; read-out: IC50 β DNA pol, calf thymus DNA, [^3H]dGTP) | IC50 (HIV-1 RT; IC50 HIV-1 RT, poly rA.dT, [^3H]dTTP) | IC50 (HIV-1 RT; IC50 HIV-1 RT, poly rC.dG, [^3H]dGTP)
1 | Cc1ccnc2c1NC(=O)c1cccnc1N2C1CC1 [Nevirapine] | > 250 µM | > 250 µM | > 250 µM | > 100 µM | > 100 µM | > 250 µM |  |  |  |  |  |  |  |  |  | 
2 | O=C(O)P(=O)(O)O [PFA] |  |  |  |  |  |  | 56 ± 12 µM | 0.55 ± 0.01 µM | 17 ± 2 µM | 7 ± 0.7 µM | 9.4 ± 6 µM | 1.6 ± 0.8 µM | 3.5 ± 1.7 µM | > 100 µM |  | 
3 | Nc1nc2c(ncn2[C@H]2CC[C@@H](COP(=O)(O)OP(=O)(O)OP(=O)(O)O)O2)c(=O)[nH]1 [ddGTP, 2′,3′-dideoxyguanosine-5′-triphosphate] | 73 ± 8 µM | 48 ± 15 µM | > 100 µM | 4.5 ± 1.2 µM | > 100 µM | 2.2 ± 1.8 µM |  |  |  |  |  |  |  |  | > 100 µM | 0.41 ± 0.02 µM
